Columns and labels:
[1] = system: Eμ-TCL1 adoptive transfer CLL mouse model; experiment: Eμ-TCL1 adoptive transfer CLL mouse model, survival; assay type: in vivo, C57BL/6NTac mice; conditions: daily oral gavage; venetoclax 100 mg/kg, nemtabrutinib 75 mg/kg, ibrutinib 25 mg/kg; 48 mice with BCR-dependent disease
Source text: (Bichi R, et al. Proc Natl Acad Sci USA. 2002; 99(10):6955-60). For FIG. 2A, splenocytes from a Eμ-TCL1 donor mouse were engrafted into 93 C57BL/6NTac mice via tail vein injection. Recipient mice were randomly enrolled into treatment groups after developing CD5+CD19+ disease as assessed by flow cytometry of peripheral blood. […] Due to the large study size, splenocytes from multiple E-TCL1 donors were needed to engraft C57BL/6NTac mice. Splenocytes from 4 donors were engrafted into groups of 48, 25, 17, and 3 recipient mice, respectively.
Peripheral blood disease progression was monitored weekly via flow cytometry and was reported as % CD5+CD19+ of CD45+ cells. (FIG. 2B). […] The survival differences of 48 mice engrafted with splenocytes from a single donor with BCR-dependent disease were assessed.

ERK phosphorylation = experiment: Immunoblot of anti-IgM stimulated primary CLL cells: pERK; assay type: cell-based, human; conditions: nemtabrutinib vs ibrutinib (1 μM), 24 hr, anti-IgM 15 min, normalized to GAPDH
Procedure: The effects of combining venetoclax and BTKi's on BCR signaling can be seen in FIG. 1B. […] Cells were stimulated with 10 μg plate-bound anti-IgM for 15 min before collection of whole cell lysate and analysis using SDS-PAGE.
For FIG. 1C to IE, all immunoblots of primary CLL patient samples were quantified using densitometry software (AlphaView). Protein levels (FIG. 1C: pBTK, FIG. 1D: pERK, FIG. 1E: MCL-1) normalized to GAPDH loading control are reported as fold change over vehicle control. A linear mixed effect model was used to analyze raw data normalized to GAPDH loading control and p values were adjusted for multiple comparisons using Tukey's method (*, p<0.05, ** p<0.01, ***, p<0.001).

[2] = system: BTK^Y223 autophosphorylation; experiment: Immunoblot of anti-IgM stimulated primary CLL cells: pBTK; assay type: cell-based, human; conditions: ibrutinib (1 μM), 24 hr, anti-IgM 15 min, normalized to GAPDH
BCL-2 and BCL-xL = experiment: BH3 profiling of primary CLL cells from nemtabrutinib treated patients (cytochrome c release); assay type: cell-based, human; conditions: samples from 3 nemtabrutinib treated patients, co-cultured with NK Tert stromal cells
Source text: For FIG. 1F, primary CLL cells from nemtabrutinib treated patients were co-cultured with NK Tert stromal cells before performing BH3 profiling using BIM, BAD, MS-1, Y4ek, and PUMA2A peptides. Baseline cytochrome c release measured in DMSO treated cells has been subtracted from all test conditions and controls presented. Cytochrome c release in response to interaction with BIM, BAD, and Y4ek peptides indicates cellular dependency on BCL-2 and BCL-xL. A linear mixed effect model was used to analyze raw data and p values were adjusted for multiple comparisons using Tukey's method. All statistics represented are in comparison to DMSO treated control (*, p<0.05, **, p<0.01, ***, p<0.001).

Primary CLL cells = experiment: Primary CLL cell viability by flow cytometry following Annexin V/PI staining; assay type: cell-based, human; conditions: BTKi 1 μM added to venetoclax 5 nM; ibrutinib washed out after 1 hr; total incubation 24 hr
Procedure: Cell viability was assessed by flow cytometry following Annexin V/PI staining. Data are normalized to DMSO control. A linear mixed effect model was used to analyze raw data and p values were adjusted for multiple comparisons using Tukey's method (*, p<0.05, **, pS0.01, ***, pS0.001).

BTK's downstream targets = conditions: cited from earlier work

| Compound | median survival [1] [days] | ERK phosphorylation (ERK phosphorylation) | autophosphorylation of BTK^Y223 vs stimulated vehicle [2] | cytochrome c release in response to BIM, BAD and Y4ek peptides (BCL-2 and BCL-xL) | increase in cytotoxicity compared to venetoclax alone (Primary CLL cells) [%] | inhibition of BTK's downstream targets compared to ibrutinib (BTK's downstream targets) |
| --- | --- | --- | --- | --- | --- | --- |
| O=C(c1ccc(Oc2ccccc2)cc1Cl)c1c[nH]c2ncnc(N[C@@H]3CC[C@@H](CO)OC3)c12 [nemtabrutinib] | 81.5 | inhibited to a more significant degree | significantly inhibited | maintain dependence on BCL2 and BCL-xL | 10 | greater inhibition |
| CC1(C)CCC(CN2CCN(c3ccc(C(=O)NS(=O)(=O)c4ccc(NCC5CCOCC5)c([N+](=O)[O-])c4)c(Oc4cnc5[nH]ccc5c4)c3)CC2)=C(c2ccc(Cl)cc2)C1 [venetoclax, reference compound] | 34.5 |  |  |  |  |  |

From patent US20250170133A1, “PHARMACEUTICAL COMBINATIONS AND METHODS OF USE OF AMINO-PYRROLOPYRIMIDINONE COMPOUND” (Merck Sharp & Dohme LLC, priority 2022, published 2025)
